Experimental data from ChEMBL document CHEMBL6177993, “De Novo 3-(Phenylcarbamoyl) Benzoate Analogues: Efficacy against Multidrug-Resistant S. aureus and Elucidation of the Biodistribution Profile” (J Med Chem, 2025).
In brackets after ≈: the same amount, converted by molar mass. Activity calls are given as the source filed them. The calls are words filed in the database; no cut-off is given here.

Columns and labels:
[1] = tested on: Enterococcus faecalis; assay: Antibacterial activity against Enterococcus faecalis ATCC 35550 assessed as reduction in bacterial growth measured after 18 to 24 hrs by broth microdilution method; assay type: functional; details: time 18-24 hrs
[2] = tested on: Staphylococcus aureus; assay: Antibacterial activity against Staphylococcus aureus ATCC 29213 assessed as reduction in bacterial growth measured after 18 to 24 hrs by broth microdilution method; assay type: functional; details: time 18-24 hrs
[3] = tested on: Acinetobacter baumannii; assay: Antibacterial activity against Acinetobacter baumannii BAA 1605 assessed as reduction in bacterial growth measured after 18 to 24 hrs by broth microdilution method; assay type: functional; details: time 18-24 hrs
[4] = tested on: Staphylococcus aureus; assay: Antibacterial activity against methicillin-resistant Staphylococcus aureus NRS 192 assessed as reduction in bacterial growth measured after 18 to 24 hrs by broth microdilution method; assay type: functional; details: time 18-24 hrs
[5] = tested on: Staphylococcus aureus; assay: Antibacterial activity against methicillin-resistant Staphylococcus aureus NRS 194 assessed as reduction in bacterial growth measured after 18 to 24 hrs by broth microdilution method; assay type: functional; details: time 18-24 hrs
[6] = tested on: Staphylococcus aureus; assay: Antibacterial activity against vacomycin-resistant Staphylococcus aureus VRS 12 assessed as reduction in bacterial growth measured after 18 to 24 hrs by broth microdilution method; assay type: functional; details: time 18-24 hrs
[7] = tested on: Staphylococcus aureus; assay: Antibiofilm activity in Staphylococcus aureus ATCC 29213 assessed as disruption of preformed biofilm at 20 times MIC measured after 24 hrs by crystal violet staining based assay relative to control; assay type: functional
[8] = tested on: Staphylococcus aureus; assay: Antibacterial activity against Staphylococcus aureus ATCC 29213 infected in female BALB/c mouse skin infection model assessed as reduction in number of bacterial cells in skin at 10 times MIC pre-infected with bacteria followed by compound addition and measured after 24 hrs; assay type: functional, organism-based
[9] = Toxicity in female BALB/c mouse assessed as effect on body weight measured after 24 hrs; details: in vivo
[10] = Toxicity in female BALB/c mouse assessed as effect on heart measured after 24 hrs by H and E staining based analysis; assay type: tissue-based; details: in vivo
[11] = Drug distribution in female BALB/c mouse heart measured after 24 hrs; assay type: ADME, tissue-based; details: in vivo
[12] = Drug distribution in female BALB/c mouse spleen measured after 24 hrs; assay type: ADME, tissue-based; details: in vivo
[13] = Drug distribution in female BALB/c mouse lung measured after 24 hrs; assay type: ADME, tissue-based; details: in vivo
[14] = Drug distribution in female BALB/c mouse liver measured after 24 hrs; assay type: ADME, tissue-based; details: in vivo
[15] = Drug distribution in female BALB/c mouse kidney measured after 24 hrs; assay type: ADME, tissue-based; details: in vivo

Question: Which MIC [1] does the source give for `O=C(O)c1cccc(C(=O)Nc2c(C(c3ccc(F)cc3)c3ccc(F)cc3)cc(Cl)cc2C(c2ccc(F)cc2)c2ccc(F)cc2)c1` here?
Answer: 1 µg/mL (≈ 1.47 µM)

Question: And the MIC [2]?
Answer: 1 µg/mL (≈ 1.47 µM)

Question: And the MIC [3]?
Answer: > 64 µg/mL

Question: And the MIC [4]?
Answer: 2 µg/mL (≈ 2.94 µM)

Question: What about the MIC [5] of the same compound?
Answer: 2 µg/mL (≈ 2.94 µM)

Question: What about the MIC [6] of the same compound?
Answer: 2 µg/mL (≈ 2.94 µM)

Question: What about the Activity [7] of the same compound?
Answer: 18.42%

Question: What about the Activity [8] of the same compound?
Answer: Active

Question: And the Activity [9]?
Answer: Non-toxic

Question: What about the Activity [10] of the same compound?
Answer: Non-toxic

Question: And the Drug uptake [11]?
Answer: 7.7 nmol/mg

Question: What about the Drug uptake [12] of the same compound?
Answer: 9.01 nmol/mg

Question: What about the Drug uptake [13] of the same compound?
Answer: 9.91 nmol/mg

Question: And the Drug uptake [14]?
Answer: 3.92 nmol/mg

Question: What about the Drug uptake [15] of the same compound?
Answer: 4.02 nmol/mg
